# Data: patent publication US20110237600A1, “COMPOUNDS FOR IMPROVING LEARNING AND MEMORY” (AMNESTIX, INC., priority 2008, published 2011)
# Key:
# over 400 kinases = test: Kinase specificity analysis (KinomeScan panel); details: 10 μM concentration; strong binding (more than 50%) for 19 kinases only
# Description: (§1) Active-site dependent competition binding assays can be performed with hundreds of known kinases in parallel (Fabian et al., Nat Biotechnol. 2005, 23, 329; Karaman et al., Nat Biotechnol. 2008, 26, 127) in order to determine how compounds bind to both intended and unintended kinases. Such methods allow the assessment of the specificity of a kinase inhibitor.
# Based on a competition binding assay that quantitatively measures the ability of a test compound to compete with an immobilized, active-site directed ligand it is possible to scan the competitive effect of the test compound for a broad variety of kinases in parallel (KinomeScan, Ambit, San Diego, Calif., USA; Fabian et al., Nat Biotechnol. 2005, 23, 329). Based on this analysis it is possible to assess the inhibitory specificity of a test compound. The assay was performed with 1-(8-cyclohexyl-5 isoquinoline-sulfonyl) 2-methyl-piperazine in 10 μM concentration. As result of the assay one obtains the percentage of competition of the active-site directed ligand for each of the over 400 kinases of the test due to the incubation with the test compounds. FIG. 3 lists the kinases ranked according to their binding to 1-(8-cyclohexyl-5 isoquinoline-sulfonyl) 2-methyl-piperazine (compound A). […]
# [1] = system: hippocampal slices from 3-4 week-old Wistar rats; test: In vitro LTP analysis, theta burst stimulation, fEPSP slope recording; type: cell-based, rat
# Description: The effect of long-term potentiation (LTP) which can be measured in vitro, is generally thought to correlate with memory. Stimulation of an afferent neuron or neuronal cell area results in membrane potentials of a downstream positioned neuron or neuronal cell area. Such membrane potentials are long-term potentiated at least over hours after stimulating the afferent neurons e.g. with a theta burst paradigm. Therefore, LTP is regarded as memory on cellular level. Electrophysiological LTP measurements on neurons incubated with a test compound in comparison to sham incubated neurons can be used to assess the compounds' potential to enhance memory (See generally Cooke and Bliss, Brain, 2006, 129 (1659), which is hereby incorporated by reference).
# LTP is thought to be suitable as in vitro model for the assessment of memory function. Therefore, it allows analysis of test compounds, e.g. the compounds of the invention, e.g. 1-(8-cyclohexyl-5 isoquinoline-sulfonyl) 2-methyl-piperazine for memory enhancing potential. Experiments were done on hippocampal slices from 3-4 week-old Wistar rats. The rats were sacrificed by decapitation without prior anesthesia. […] A platinum/tungsten electrode was then lowered into the CA1 dendritic layer under visual control until stable amplitudes of the recorded fEPSP were achieved. […] Then, the test compound was washed in for a period of 30 min during which stimulation was continued at 0.05 Hz and fEPSPs were continuously recorded. […] All slices recorded simultaneously were treated with the same time schedule. From the recorded data, the amplitudes of the evoked fEPSP were automatically calculated by the recording software (Synchroslice data acquisition and analysis, LRE) as the negative peak of the postsynaptic signal with respect to baseline and plotted online. All recorded signals were digitally stored for later offline analysis, in particular for fEPSP negative slope calculation. From the stored single sweeps, the slope was calculated between 30% and 70% of the maximum fEPSP amplitude. […]
# MET = biological target: T1, MET (Homo sapiens, UniProt P08581); test: KinomeScan active-site dependent competition binding assay; details: 10 μM concentration
# T1 construct: purchased Ambit
# Description: as §1
# (§2) Based on a competition binding assay that quantitatively measures the ability of a test compound to compete with an immobilized, active-site directed ligand it is possible to scan the competitive effect of the test compound for a broad variety of kinases in parallel (KinomeScan, Ambit, San Diego, Calif., USA; Fabian et al., Nat Biotechnol. 2005, 23, 329). Based on this analysis it is possible to assess the inhibitory specificity of a test compound. The assay was performed with 1-(8-cyclohexyl-5 isoquinoline-sulfonyl) 2-methyl-piperazine in 10 μM concentration. As result of the assay one obtains the percentage of competition of the active-site directed ligand for each of the over 400 kinases of the test due to the incubation with the test compounds. FIG. 3 lists the kinases ranked according to their binding to 1-(8-cyclohexyl-5 isoquinoline-sulfonyl) 2-methyl-piperazine (compound A). Strong binding (more than 50%) of 1-(8-cyclohexyl-5 isoquinoline-sulfonyl) 2-methyl-piperazine is found only for the kinases CSNK1E, CSNK1A1L, CSNK1D, MERTK, SLK, IRAK1, STK10, MAPK12, PHKG2, MAPK11, MET, AXL, STK32B, AURKC, CLK3, RPS6KA6, PDGFRB, KDR, CDK2.
# MAPK11 = biological target: T2, MAPK11 (Homo sapiens, UniProt Q15759); test: as above; details: 10 μM concentration
# T2 construct: purchased Ambit
# T2 sequence (Q15759 whole entry): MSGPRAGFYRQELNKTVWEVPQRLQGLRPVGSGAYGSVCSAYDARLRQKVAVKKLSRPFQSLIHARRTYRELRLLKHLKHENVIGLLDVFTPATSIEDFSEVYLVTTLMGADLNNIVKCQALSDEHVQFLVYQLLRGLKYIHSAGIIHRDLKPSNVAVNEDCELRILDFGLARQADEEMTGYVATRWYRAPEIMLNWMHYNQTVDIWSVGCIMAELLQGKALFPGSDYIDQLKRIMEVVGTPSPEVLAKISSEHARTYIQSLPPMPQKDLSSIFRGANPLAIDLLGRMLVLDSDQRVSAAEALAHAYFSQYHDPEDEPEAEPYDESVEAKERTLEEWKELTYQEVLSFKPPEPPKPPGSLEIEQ
# Description: as §1, §2
# IRAK1 = biological target: T3, IRAK1 (Homo sapiens, UniProt P51617); test: as above; details: 10 μM concentration
# T3 construct: purchased Ambit
# T3 sequence (P51617 whole entry): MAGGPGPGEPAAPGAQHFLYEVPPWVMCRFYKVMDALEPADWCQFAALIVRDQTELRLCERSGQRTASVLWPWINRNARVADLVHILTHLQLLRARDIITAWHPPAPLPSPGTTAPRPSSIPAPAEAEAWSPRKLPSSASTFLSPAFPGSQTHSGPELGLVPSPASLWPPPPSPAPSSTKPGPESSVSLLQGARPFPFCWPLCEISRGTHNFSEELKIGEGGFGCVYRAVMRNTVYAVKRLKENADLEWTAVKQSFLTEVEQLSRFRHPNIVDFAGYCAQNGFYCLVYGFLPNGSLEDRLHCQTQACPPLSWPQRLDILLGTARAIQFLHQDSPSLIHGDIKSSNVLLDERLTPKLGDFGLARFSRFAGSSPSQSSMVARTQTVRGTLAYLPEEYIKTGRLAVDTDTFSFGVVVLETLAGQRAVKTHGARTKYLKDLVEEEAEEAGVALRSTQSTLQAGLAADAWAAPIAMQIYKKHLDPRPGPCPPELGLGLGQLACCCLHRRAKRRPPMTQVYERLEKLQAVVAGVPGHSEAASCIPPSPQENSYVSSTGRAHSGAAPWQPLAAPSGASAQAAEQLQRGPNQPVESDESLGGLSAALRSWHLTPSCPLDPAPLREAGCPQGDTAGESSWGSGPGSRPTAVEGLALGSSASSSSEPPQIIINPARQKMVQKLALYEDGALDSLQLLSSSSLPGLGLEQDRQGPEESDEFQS
# Description: as §1, §2
# CLK3 = biological target: T4, CLK3 (Homo sapiens, UniProt P49761); test: as above; details: 10 μM concentration
# T4 construct: purchased Ambit
# Description: as §1, §2
# CSNK1A1L = biological target: T5, CSNK1A1L (Homo sapiens, UniProt Q8N752); test: as above; details: 10 μM concentration
# T5 construct: purchased Ambit
# Description: as §1, §2
# RPS6KA6 = biological target: T6, RPS6KA6 (Homo sapiens, UniProt Q9UK32); test: as above; details: 10 μM concentration
# T6 construct: purchased Ambit
# Description: as §1, §2
# CSNK1E = biological target: T7, CSNK1E (Homo sapiens, UniProt P49674); test: as above; details: 10 μM concentration
# T7 construct: purchased Ambit
# T7 sequence (P49674 whole entry): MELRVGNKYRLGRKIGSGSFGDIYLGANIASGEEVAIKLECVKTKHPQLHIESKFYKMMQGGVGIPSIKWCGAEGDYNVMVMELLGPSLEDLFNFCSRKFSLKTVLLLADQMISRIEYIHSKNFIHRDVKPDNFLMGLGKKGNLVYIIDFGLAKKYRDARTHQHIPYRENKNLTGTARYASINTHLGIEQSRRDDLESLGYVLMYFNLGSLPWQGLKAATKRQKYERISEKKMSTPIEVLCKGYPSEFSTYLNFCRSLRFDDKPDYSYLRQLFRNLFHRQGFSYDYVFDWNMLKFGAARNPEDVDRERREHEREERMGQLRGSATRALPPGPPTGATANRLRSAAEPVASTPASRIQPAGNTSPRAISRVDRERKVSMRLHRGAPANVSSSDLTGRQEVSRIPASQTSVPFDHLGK
# Description: as §1, §2
# CDK2 = biological target: T8, CDK2 (Homo sapiens, UniProt P24941); test: as above; details: 10 μM concentration
# T8 construct: purchased Ambit
# Description: as §1, §2
# CSNK1D = biological target: T9, CSNK1D (Homo sapiens, UniProt P48730); test: as above; details: 10 μM concentration
# T9 construct: purchased Ambit
# Description: as §1, §2
# KDR = biological target: T10, KDR (Homo sapiens, UniProt P35968); test: as above; details: 10 μM concentration
# T10 construct: purchased Ambit
# Description: as §1, §2
# STK10 = biological target: T11, STK10 (Homo sapiens, UniProt O94804); test: as above; details: 10 μM concentration
# T11 construct: purchased Ambit
# T11 sequence (O94804 whole entry): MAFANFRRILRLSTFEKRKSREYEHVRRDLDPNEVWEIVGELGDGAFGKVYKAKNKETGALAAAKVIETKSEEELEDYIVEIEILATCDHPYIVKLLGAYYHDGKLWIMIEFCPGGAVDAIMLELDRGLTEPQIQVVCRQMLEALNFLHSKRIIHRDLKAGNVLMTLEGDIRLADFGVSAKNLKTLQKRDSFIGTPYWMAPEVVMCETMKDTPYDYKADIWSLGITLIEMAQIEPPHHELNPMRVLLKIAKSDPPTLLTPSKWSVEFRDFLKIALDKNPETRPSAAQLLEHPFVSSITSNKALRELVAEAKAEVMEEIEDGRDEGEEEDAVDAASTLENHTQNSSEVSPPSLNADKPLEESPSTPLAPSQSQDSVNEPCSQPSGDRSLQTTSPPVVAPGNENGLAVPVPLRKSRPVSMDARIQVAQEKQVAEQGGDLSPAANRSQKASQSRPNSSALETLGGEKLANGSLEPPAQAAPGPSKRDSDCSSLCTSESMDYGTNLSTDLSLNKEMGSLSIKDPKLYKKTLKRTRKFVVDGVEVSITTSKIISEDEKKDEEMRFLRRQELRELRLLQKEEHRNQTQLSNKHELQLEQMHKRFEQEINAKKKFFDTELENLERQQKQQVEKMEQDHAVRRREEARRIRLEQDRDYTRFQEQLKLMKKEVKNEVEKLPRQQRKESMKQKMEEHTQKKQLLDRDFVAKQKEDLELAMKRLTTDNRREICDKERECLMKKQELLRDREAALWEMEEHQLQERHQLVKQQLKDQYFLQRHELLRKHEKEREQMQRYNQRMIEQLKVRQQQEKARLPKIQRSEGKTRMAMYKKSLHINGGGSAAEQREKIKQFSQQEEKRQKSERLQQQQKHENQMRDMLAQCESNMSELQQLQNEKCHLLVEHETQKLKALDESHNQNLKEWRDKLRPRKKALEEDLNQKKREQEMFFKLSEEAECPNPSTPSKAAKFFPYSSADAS
# Description: as §1, §2
# PHKG2 = biological target: T12, PHKG2 (Homo sapiens, UniProt P15735); test: as above; details: 10 μM concentration
# T12 construct: purchased Ambit
# Description: as §1, §2
# AURKC = biological target: T13, AURKC (Homo sapiens, UniProt Q9UQB9); test: as above; details: 10 μM concentration
# T13 construct: purchased Ambit
# T13 sequence (Q9UQB9 whole entry): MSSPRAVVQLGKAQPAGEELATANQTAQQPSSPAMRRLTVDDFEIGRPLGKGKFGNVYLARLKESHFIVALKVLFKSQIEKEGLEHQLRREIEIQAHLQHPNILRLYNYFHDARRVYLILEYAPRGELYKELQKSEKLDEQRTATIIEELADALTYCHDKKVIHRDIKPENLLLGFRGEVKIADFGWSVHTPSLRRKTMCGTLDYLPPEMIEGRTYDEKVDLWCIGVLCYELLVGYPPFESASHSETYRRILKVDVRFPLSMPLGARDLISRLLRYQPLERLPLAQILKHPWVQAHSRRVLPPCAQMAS
# Description: as §1, §2
# MAPK12 = biological target: T14, MAPK12 (Homo sapiens, UniProt P53778); test: as above; details: 10 μM concentration
# T14 construct: purchased Ambit
# Description: as §1, §2
# AXL = biological target: T15, AXL (Homo sapiens, UniProt P30530); test: as above; details: 10 μM concentration
# T15 construct: purchased Ambit
# Description: as §1, §2
# MERTK = biological target: T16, MERTK (Homo sapiens, UniProt Q12866); test: as above; details: 10 μM concentration
# T16 construct: purchased Ambit
# T16 sequence (Q12866 21-999): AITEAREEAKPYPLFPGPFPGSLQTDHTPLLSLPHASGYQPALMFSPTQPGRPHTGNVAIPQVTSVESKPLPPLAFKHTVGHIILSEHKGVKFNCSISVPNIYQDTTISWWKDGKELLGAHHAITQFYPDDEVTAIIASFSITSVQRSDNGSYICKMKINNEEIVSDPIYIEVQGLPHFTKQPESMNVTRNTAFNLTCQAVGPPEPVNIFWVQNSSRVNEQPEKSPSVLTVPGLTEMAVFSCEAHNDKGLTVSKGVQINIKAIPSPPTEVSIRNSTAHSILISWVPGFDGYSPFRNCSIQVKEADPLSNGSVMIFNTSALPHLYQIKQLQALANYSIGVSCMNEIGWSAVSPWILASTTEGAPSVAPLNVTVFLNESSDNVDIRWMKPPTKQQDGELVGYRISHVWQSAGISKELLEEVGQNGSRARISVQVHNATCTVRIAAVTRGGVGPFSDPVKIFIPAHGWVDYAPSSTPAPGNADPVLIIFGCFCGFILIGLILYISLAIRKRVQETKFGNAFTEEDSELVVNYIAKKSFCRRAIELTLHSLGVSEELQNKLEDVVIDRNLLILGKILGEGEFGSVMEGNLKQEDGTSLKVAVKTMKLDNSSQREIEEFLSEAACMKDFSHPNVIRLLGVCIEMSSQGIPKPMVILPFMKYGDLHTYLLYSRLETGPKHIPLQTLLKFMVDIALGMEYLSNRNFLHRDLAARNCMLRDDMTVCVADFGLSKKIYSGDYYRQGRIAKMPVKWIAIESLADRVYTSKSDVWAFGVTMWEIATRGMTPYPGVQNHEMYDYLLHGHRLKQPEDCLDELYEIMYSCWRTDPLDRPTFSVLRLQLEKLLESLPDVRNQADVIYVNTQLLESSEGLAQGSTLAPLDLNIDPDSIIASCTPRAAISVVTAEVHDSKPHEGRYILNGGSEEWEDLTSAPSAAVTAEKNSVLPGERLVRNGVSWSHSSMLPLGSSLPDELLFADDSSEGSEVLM
# Description: as §1, §2
# SLK = biological target: T17, SLK (Homo sapiens, UniProt Q9H2G2); test: as above; details: 10 μM concentration
# T17 construct: purchased Ambit
# T17 sequence (Q9H2G2 whole entry): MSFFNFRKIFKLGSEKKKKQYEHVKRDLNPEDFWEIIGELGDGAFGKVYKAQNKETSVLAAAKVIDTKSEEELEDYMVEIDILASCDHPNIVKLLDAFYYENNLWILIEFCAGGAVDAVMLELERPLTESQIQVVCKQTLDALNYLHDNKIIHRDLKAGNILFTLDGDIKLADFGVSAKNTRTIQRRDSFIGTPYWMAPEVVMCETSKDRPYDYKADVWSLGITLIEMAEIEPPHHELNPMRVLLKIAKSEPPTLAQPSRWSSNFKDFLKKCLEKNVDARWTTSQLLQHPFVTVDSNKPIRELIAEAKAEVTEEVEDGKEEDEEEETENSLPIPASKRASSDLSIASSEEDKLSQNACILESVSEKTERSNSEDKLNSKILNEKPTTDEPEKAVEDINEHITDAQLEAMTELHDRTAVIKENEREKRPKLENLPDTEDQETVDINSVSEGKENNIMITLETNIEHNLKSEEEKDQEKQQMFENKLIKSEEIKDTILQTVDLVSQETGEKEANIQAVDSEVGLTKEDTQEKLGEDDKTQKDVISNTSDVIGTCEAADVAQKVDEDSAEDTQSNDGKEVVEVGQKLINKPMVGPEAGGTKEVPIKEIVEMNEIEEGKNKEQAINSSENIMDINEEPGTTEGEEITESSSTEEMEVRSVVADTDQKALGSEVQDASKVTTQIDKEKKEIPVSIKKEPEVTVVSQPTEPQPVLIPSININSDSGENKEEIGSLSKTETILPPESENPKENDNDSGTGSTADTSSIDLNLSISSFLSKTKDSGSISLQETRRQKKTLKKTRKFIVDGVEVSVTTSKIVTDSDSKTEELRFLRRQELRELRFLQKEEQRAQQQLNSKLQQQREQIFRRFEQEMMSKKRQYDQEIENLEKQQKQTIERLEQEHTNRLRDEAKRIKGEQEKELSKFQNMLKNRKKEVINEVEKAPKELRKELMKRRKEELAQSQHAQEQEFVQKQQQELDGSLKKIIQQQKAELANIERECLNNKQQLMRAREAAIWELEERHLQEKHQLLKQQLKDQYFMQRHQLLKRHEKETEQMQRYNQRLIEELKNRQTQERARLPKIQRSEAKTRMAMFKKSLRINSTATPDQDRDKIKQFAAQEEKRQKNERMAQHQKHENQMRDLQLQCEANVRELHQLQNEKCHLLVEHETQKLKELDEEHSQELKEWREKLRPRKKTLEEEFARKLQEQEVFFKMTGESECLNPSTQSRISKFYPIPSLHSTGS
# Description: as §1, §2
# PDGFRB = biological target: T18, PDGFRB (Homo sapiens, UniProt P09619); test: as above; details: 10 μM concentration
# T18 construct: purchased Ambit
# Description: as §1, §2
# STK32B = biological target: T19, STK32B (Homo sapiens, UniProt Q9NY57); test: as above; details: 10 μM concentration
# T19 construct: purchased Ambit
# Description: as §1, §2
# [2] = system: undifferentiated PC12 cells; details: Zhang et al., Cell Mol Biol Lett., 2006; cited from earlier work
compound,measurement,setting,value
CC1CNCCN1S(=O)(=O)c1ccc(C2CCCCC2)c2cnccc12 (stereo not drawn) [1-(8-cyclohexyl-5 isoquinoline-sulfonyl) 2-methyl-piperazine],inhibitory specificity across the kinase panel,over 400 kinases,very selective kinase inhibitor
same,increase in EPSP slopes when the compound is removed,[1]; 100 μM concentration,most obvious and very strong
same,LTP induction (fEPSP slope),"[1]; compound washed in at increasing concentrations (1 μM, 10 μM and 100 μM), control slices about 140% of pre-stimulus levels",complete block of LTP-induction
same,EPSP slopes when the compound is removed,"[1]; wash-out 30 min after LTP induction, 1 μM, 10 μM and 100 μM",increase in EPSP slopes
same,binding (percentage of competition of the active-site directed ligand),MET,more than 50%
same,binding (percentage of competition of the active-site directed ligand),MAPK11,more than 50%
same,binding (percentage of competition of the active-site directed ligand),IRAK1,more than 50%
same,binding (percentage of competition of the active-site directed ligand),CLK3,more than 50%
same,binding (percentage of competition of the active-site directed ligand),CSNK1A1L,more than 50%
same,binding (percentage of competition of the active-site directed ligand),RPS6KA6,more than 50%
same,binding (percentage of competition of the active-site directed ligand),CSNK1E,more than 50%
same,binding (percentage of competition of the active-site directed ligand),CDK2,more than 50%
same,binding (percentage of competition of the active-site directed ligand),CSNK1D,more than 50%
same,binding (percentage of competition of the active-site directed ligand),KDR,more than 50%
same,binding (percentage of competition of the active-site directed ligand),STK10,more than 50%
same,binding (percentage of competition of the active-site directed ligand),PHKG2,more than 50%
same,binding (percentage of competition of the active-site directed ligand),AURKC,more than 50%
same,binding (percentage of competition of the active-site directed ligand),MAPK12,more than 50%
same,binding (percentage of competition of the active-site directed ligand),AXL,more than 50%
same,binding (percentage of competition of the active-site directed ligand),MERTK,more than 50%
same,binding (percentage of competition of the active-site directed ligand),SLK,more than 50%
same,binding (percentage of competition of the active-site directed ligand),PDGFRB,more than 50%
same,binding (percentage of competition of the active-site directed ligand),STK32B,more than 50%
O=S(=O)(c1cccc2cnccc12)N1CCCNCC1 [Fasudil],neurite outgrowth,[2],increase neurite outgrowth
